Among the data in ChEMBL document CHEMBL1126321, “Antitumor agents. 123. Synthesis and human DNA topoisomerase II inhibitory activity of 2'-chloro derivatives of etoposide and 4 beta-(arylamino)-4'-O-demethylpodophyllotoxins” (J Med Chem, 1992) are Complex formation, ID50 and IC50 values, retold here.

Each structure is given as a SMILES string. A value given as a limit tells only on which side of the number the result lay.

The subject of assay [1] is Nucleic Acid. In words: Effect on cellular protein DNA complex formation(%) at 10 uM in comparison with etoposide. It counts as functional.
In assay [2] the target is T1, DNA topoisomerase II (Homo sapiens) (UniProt P11388+Q02880). Put plainly: Evaluated for the inhibition of human DNA Topoisomerase II. It counts as protein assay.
Assay [3] in a line: Concentration required for 50% reduction in KB cell number after 3-day incubation. It counts as functional, cell-based, Homo sapiens.
The target in assay [4] is T1, DNA topoisomerase II (Homo sapiens). In words: Compound was evaluated for the inhibition of human DNA Topoisomerase II. It is filed as protein assay.

For `COc1cc([C@@H]2c3cc4c(cc3[C@@H](Nc3ccc5c(c3)OCO5)[C@H]3COC(=O)[C@H]23)OCO4)c(Cl)c(OC)c1O`, in assay [1], the Complex formation turned out to be 0%. In assay [2], this compound came in with an ID50 of over 100 µM. In assay [3], the IC50 (as a rule, the point on the concentration scale where inhibition reaches its midpoint) was over 7.2 µM.
`COc1cc([C@@H]2c3cc4c(cc3[C@@H](Nc3ccc(F)cc3)[C@H]3COC(=O)[C@H]23)OCO4)cc(OC)c1O` showed a Complex formation in assay [1] of 213%. This compound also had an IC50 in assay [3] of 0.24 µM.
`COc1cc([C@@H]2c3cc4c(cc3[C@@H](O[C@@H]3O[C@@H]5CO[C@@H](C)O[C@H]5[C@H](O)[C@H]3O)[C@H]3COC(=O)[C@H]23)OCO4)c(Cl)c(OC)c1O` returned a Complex formation in assay [1] of 6.1%. This compound returned an ID50 in assay [2] of over 50 µM. Also, the IC50 in assay [3] was over 6.4 µM.
Turning to `COc1cc([C@@H]2c3cc4c(cc3[C@@H](Nc3ccc([N+](=O)[O-])cc3)[C@H]3COC(=O)[C@H]23)OCO4)c(Cl)c(OC)c1O`, in assay [4], the ID50 is over 100 µM. The compound also came in with a Complex formation in assay [1] of 0%. In addition, the IC50 in assay [3] is over 7.2 µM.
Regarding `COc1cc([C@@H]2c3cc4c(cc3[C@@H](O)[C@H]3COC(=O)[C@H]23)OCO4)c(Cl)c(OC)c1O`, in assay [1], the Complex formation is 15.6%. This compound came in with an ID50 in assay [2] of over 50 µM. Moreover, in assay [3], the IC50 is over 22.3 µM.
The like results for `COc1cc([C@@H]2c3cc4c(cc3[C@@H](Nc3ccc(Cl)cc3)[C@H]3COC(=O)[C@H]23)OCO4)c(Cl)c(OC)c1O` were, in that order, 0%, over 100 µM and over 7.3 µM.
Compound `COc1cc([C@@H]2c3cc4c(cc3[C@@H](Nc3cccc(O)c3)[C@H]3COC(=O)[C@H]23)OCO4)c(Cl)c(OC)c1O` came in with a Complex formation in assay [1] of 0%. In addition, in assay [2], the ID50 was over 100 µM. For the same compound, the IC50 in assay [3] is 5.7 µM.
Consider `COc1cc([C@@H]2c3cc4c(cc3[C@@H](O[C@@H]3O[C@@H]5CO[C@@H](C)O[C@H]5[C@H](O)[C@H]3O)[C@H]3COC(=O)[C@H]23)OCO4)cc(OC)c1O` [ETOPOSIDE], for which the Complex formation in assay [1] worked out at 100%. Inhibition in assay [3] was half-maximal at 0.2 µM (IC50).
In the same order, the values of `COc1cc([C@@H]2c3cc4c(cc3[C@@H](Nc3ccc([N+](=O)[O-])cc3)[C@H]3COC(=O)[C@H]23)OCO4)cc(OC)c1O` are 323% and 0.49 µM.
For the compound `COc1cc([C@@H]2c3cc4c(cc3[C@@H](Nc3cccc([N+](=O)[O-])c3)[C@H]3COC(=O)[C@H]23)OCO4)c(Cl)c(OC)c1O`, the Complex formation in assay [1] was determined as 0%. The compound also displayed an ID50 in assay [2] of over 100 µM. The compound further showed an IC50 in assay [3] of over 7.2 µM.
In the same order, the values of `COc1cc([C@@H]2c3cc4c(cc3[C@@H](Nc3ccc(F)cc3)[C@H]3COC(=O)[C@H]23)OCO4)c(Cl)c(OC)c1O` are 0%, over 100 µM and over 7.5 µM.
In the same order, the values of `COc1cc([C@@H]2c3cc4c(cc3[C@@H](Nc3ccc(Br)cc3)[C@H]3COC(=O)[C@H]23)OCO4)c(Cl)c(OC)c1O` are 0%, over 100 µM and over 6.8 µM.
The like results for `COc1cc([C@@H]2c3cc4c(cc3[C@@H](Nc3ccc5c(c3)OCCO5)[C@H]3COC(=O)[C@H]23)OCO4)c(Cl)c(OC)c1O` were, in that order, 0%, over 100 µM and over 7 µM.
The compound `COc1cc([C@@H]2c3cc4c(cc3[C@@H](Nc3cccc(O)c3)[C@H]3COC(=O)[C@H]23)OCO4)cc(OC)c1O` came in with a Complex formation in assay [1] of 290%. The IC50 in assay [3] worked out at 0.45 µM.
`COc1cc([C@@H]2c3cc4c(cc3[C@@H](Nc3ccc5c(c3)OCO5)[C@H]3COC(=O)[C@H]23)OCO4)cc(OC)c1O` gave a Complex formation in assay [1] of 279%. In addition, the ID50 in assay [2] is 10 µM. For the same compound, the IC50 in assay [3] was found to be 0.68 µM.
